Assay results: ChEMBL document CHEMBL5620379, “Discovery, SAR and mechanistic studies of quinazolinone-based acetamide derivatives in experimental visceral leishmaniasis” (Eur J Med Chem, 2023)
Active and inactive are the calls of the source. The calls are words filed in the database; no cut-off is given here.

How the values were obtained:
J774 [1] = experiment: Cytotoxicity against mouse J774 cells at 12.5 uM incubated for 72 hrs by MTT assay relative to control; assay type: toxicity, cell-based; conditions: j774, 72 h
J774 [2] = experiment: Cytotoxicity against mouse J774 cells at 25 uM incubated for 72 hrs by MTT assay relative to control; assay type: toxicity, cell-based; conditions: j774, 72 h
Leishmania donovani [3] = experiment: Antileishmanial activity against Leishmania donovani promastigotes at 25 uM measured after 48 hrs by MTT assay relative to control; assay type: functional
[4] = Stability of the compound in Tris-buffer at 10 ug/ml at pH 7.4 measured upto 120 min by HPLC analysis; assay type: physicochemical; conditions: at 10 µg/mL, read-out: Stability
Leishmania donovani [5] = experiment: Antileishmanial activity against amastigote form of Leishmania donovani infected in BALB/c mouse assessed as inhibition of parasite growth in liver at 20 mg/kg, po measured after 1 week post treatment by geimsa staining based analysis relative to control; assay type: functional; parameters: scale not given: the % may be the effect or the level left; conditions: time 1 weeks
Leishmania donovani [6] = experiment: Antileishmanial activity against amastigote form of Leishmania donovani infected in BALB/c mouse assessed as inhibition of parasite growth in spleen at 10 mg/kg, po measured after 1 week post treatment by geimsa staining based analysis relative to control; assay type: functional; parameters: scale not given: the % may be the effect or the level left; conditions: time 1 weeks
Leishmania donovani [7] = experiment: Antileishmanial activity against amastigote form of Leishmania donovani infected in BALB/c mouse assessed as inhibition of parasite growth in liver at 40 mg/kg, po measured after 1 week post treatment by geimsa staining based analysis relative to control; assay type: functional; parameters: scale not given: the % may be the effect or the level left; conditions: time 1 weeks
[8] = Toxicity in BALB/c mouse assessed as effect on body weight at 10 to 40 mg/kg, po measured after 1 week; assay type: organism-based; conditions: in vivo, 168 h, dose 10-40 mg/kg, time 1 weeks
Leishmania donovani [9] = experiment: Antileishmanial activity against Leishmania donovani infected in golden hamster assessed as inhibition of parasite growth in spleen at 80 mg/kg, po administered for 7 days and measured after 28 days by giemsa staining based analysis relative to control; assay type: functional; parameters: scale not given: the % may be the effect or the level left; conditions: time 28 day
[10] = Renal toxicity in golden hamster assessed as effect on creatinine level at 40 mg/kg, po measured after 28 days post infection; assay type: organism-based, Mesocricetus auratus; conditions: in vivo, 672 h, time 28 day
J774 [11] = experiment: Immunostimulatory activity in mouse J774 macrophage infected with Leishmania donovani assessed as fold increase in IL-12 level at 25 uM measured after 24 hrs by RT-PCR analysis; assay type: functional
J774 [12] = experiment: Downregulation of Akt phosphorylation in mouse J774 macrophage infected with Leishmania donovani at 25 uM measured after 4 to 8 hrs by immunoblot analysis; assay type: functional, cell-based; conditions: time 4-8 hrs
J774 [13] = experiment: Downregulation of CREB phosphorylation level at Ser133 residue in mouse J774 macrophage infected with Leishmania donovani at 25 uM measured after 12 to 16 hrs by immunoblot analysis; assay type: functional, cell-based; conditions: time 12-16 hrs
Leishmania donovani [14] = experiment: Induction of cell cycle arrest in Leishmania donovani promastigotes assessed as accumulation of cells at G1 phase at 25 uM measured after 8 hrs by PI staining based flow cytometry analysis (reference value: 35.7%); assay type: functional
Leishmania donovani [15] = experiment: Induction of cell cycle arrest in Leishmania donovani promastigotes assessed as accumulation of cells at G1 phase at 25 uM measured after 12 hrs by PI staining based flow cytometry analysis (reference value: 35.7%); assay type: functional
Leishmania donovani [16] = experiment: Induction of cell cycle arrest in Leishmania donovani promastigotes assessed as accumulation of cells at G1 phase at 25 uM measured after 24 hrs by PI staining based flow cytometry analysis (reference value: 35.7%); assay type: functional
Leishmania donovani [17] = experiment: Induction of cell cycle arrest in Leishmania donovani promastigotes assessed as accumulation of cells at S phase at 25 uM measured after 8 hrs by PI staining based flow cytometry analysis (reference value: 28.6%); assay type: functional
Leishmania donovani [18] = experiment: Induction of cell cycle arrest in Leishmania donovani promastigotes assessed as accumulation of cells at S phase at 25 uM measured after 24 hrs by PI staining based flow cytometry analysis (reference value: 28.6%); assay type: functional
Leishmania donovani [19] = experiment: Induction of cell cycle arrest in Leishmania donovani promastigotes assessed as accumulation of cells at G2/M phase at 25 uM measured after 4 hrs by PI staining based flow cytometry analysis (reference value: 35.7%); assay type: functional
Leishmania donovani [20] = experiment: Induction of cell cycle arrest in Leishmania donovani promastigotes assessed as accumulation of cells at G2/M phase at 25 uM measured after 24 hrs by PI staining based flow cytometry analysis (reference value: 35.7%); assay type: functional
Leishmania donovani [21] = experiment: Induction of autophagy in Leishmania donovani promastigotes assessed as increase in number of MDC-positive parasite by measuring MDC-labelled vacuoles at 25 uM measured after 24 hrs by MDC staining based analysis; assay type: functional, organism-based
Leishmania donovani [22] = experiment: Induction of autophagy in Leishmania donovani promastigotes assessed as appearance of lipid droplets in cytoplasm at 25 uM measured after 24 hrs by Nile red staining based fluorescence microscopic analysis; assay type: functional, organism-based
Leishmania donovani [23] = experiment: Antileishmanial activity against Leishmania donovani promastigotes at 25 uM measured after 12 hrs by luciferase assay relative to control; assay type: functional
Leishmania donovani [24] = experiment: Antileishmanial activity against Leishmania donovani promastigotes at 25 uM measured after 12 hrs in presence of antipain by luciferase assay relative to control; assay type: functional
Leishmania donovani [25] = experiment: Induction of autophagy in Leishmania donovani promastigotes assessed as fold induction of ATG12 gene at 25 uM measured after 24 hrs by RT-PCR analysis; assay type: functional
Leishmania donovani [26] = experiment: Induction of autophagy in Leishmania donovani promastigotes assessed as fold increase in Sir2 transcript level at 25 uM measured after 24 hrs by RT-PCR analysis; assay type: functional

SMILES: Cn1c(-c2ccc(OCC(=O)Nc3ccccn3)cc2)nc2ccccc2c1=O
- Activity (J774 [1]): 90.78%
- Activity (J774 [2]): 79.57%
- Activity (Leishmania donovani [3]): 85.64%
- remaining at 2 h, 10 ug/ml [4]: 95.5%
- Activity (Leishmania donovani [5]): >50%
- Activity (Leishmania donovani [6]): >50%
- Activity (Leishmania donovani [7]): 85.4%
- Activity [8]: Non-Toxic
- Activity (Leishmania donovani [9]): 85.8%
- Activity [10]: Non-Toxic
- fold change (FC) (J774 [11]): 3.4
- Activity (J774 [12]): Active
- Activity (J774 [13]): Active
- Activity (Leishmania donovani [14]): 55.5%
- Activity (Leishmania donovani [15]): 65.8%
- Activity (Leishmania donovani [16]): 72.2%
- Activity (Leishmania donovani [17]): 20.7%
- Activity (Leishmania donovani [18]): 13.9%
- Activity (Leishmania donovani [19]): 30.6%
- Activity (Leishmania donovani [20]): 13.9%
- Activity (Leishmania donovani [21]): Active
- Activity (Leishmania donovani [22]): Active
- Activity (Leishmania donovani [23]): 11.8%
- Activity (Leishmania donovani [24]): 40.44%
- fold change (FC) (Leishmania donovani [25]): 8.57
- fold change (FC) (Leishmania donovani [26]): 4.95
